Literature values as cited in PubChem BioAssay AID1259410 (Chemical Carcinogenesis Research Information System (CCRIS), 2018).

Tested on: rodent tumor promotion studies, tumor incidence
Test: CCRIS tumor promotion studies

O=NO
outcome (Carcinogen: 1,2-DIMETHYLHYDRAZINE [540-73-8], Doses [Carcinogen]: 8 MG/KG, Doses [Promoter]: 50, 500 MG, Route [Promoter]: INJECTION, Species: MOUSE, Strain/Sex: (C57B1 X CBA)/MALE): liver: hepatocarcinoma, hepatic hemangioendothelioma; kidney: renal adenoma; inc
outcome (Carcinogen: Diethyl nitrosamine (DEN), 55-18-5 and dimethylhydrazine (DMH), 30260-66-3, Carcinogen: Diethyl nitrosamine (DEN), 55-18-5 and dimethylhydrazine (DMH), 30260-66-3, Doses [Carcinogen]: DEN, 200 mg/kg once at -3 days, DMH, 40 mg/kg 4 injections between day 0 and wk 2, Doses [Promoter]: 0, 0.1, 0.2% in drinking water from week 2 to 29, study duration 29 wk, Doses [Promoter]: 0, 0.1, 0.2% in drinking water from week 2 to 29, study duration 29 wk, Route [Carcinogen]: Intraperitoneal (DEN) and subcutaneous (DMH), Route [Promoter]: Oral, Species: Rat, Strain/Sex: F344/Du Crj (20/group)): liver: hepatocellular adenoma and carcinoma. colon adenoma and carcinoma. incide
outcome (Carcinogen: N-METHYL-N'-NITRO-N-NITROSOGUANIDINE, 70-25-7, Doses [Carcinogen]: 150 MG/KG BW IN DMSO:WATER (1:1) ONCE, Doses [Promoter]: 0, 0.3% IN DRINKING WATER BEGINNING 1 WK POST CARCINOGEN DOSE (STUDY DURATION: 52 WK), Route [Carcinogen]: GAVAGE, Route [Promoter]: ORAL, Species: RAT, Strain/Sex: F344/MALE): forestomach: papilloma, squamous cell carcinoma
outcome (Carcinogen: N-bis(2-hydroxypropyl)nitrosamine (DHPN) (53609-64-6), Doses [Carcinogen]: 0.1% (w/v) in drinking water for 3 wk, then surgery for acid reflux esophagitis, study duration 34 wk, Doses [Promoter]: 0 (basal diet), 0.2% sodium nitrite, 1% ascorbic acid with 0.2% sodium nitrite, study duration 32 wk after first promote, Doses [Promoter]: 0 (basal diet), 0.2% sodium nitrite, 1% ascorbic acid with 0.2% sodium nitrite, study duration 32 wk after first promote, Route [Carcinogen]: Oral, Route [Promoter]: Oral, Species: Rat, Strain/Sex: F344/Male (24/group)): esophagus (p1-p4): papilloma; significant only for combined treatment in p4 segm
outcome (Carcinogen: N-methyl-N'-nitro-N-nitrosoguanidine (70-25-7), Doses [Carcinogen]: 0.01% in drinking water for 10 wk for initiation of glandular stomach tumors, 100 mg/kg intragastrically after 16 hr st, Doses [Promoter]: 0.05%, 0.1%, or 0.2% in drinking water from wk 11 to end of study in combination with 0.1% or 1.0% vitamin C in diet (, Route [Carcinogen]: Oral and Intragastric, Route [Promoter]: Oral, Species: Rat, Strain/Sex: F344/Male (15/15)/(14/15)(15/15)(15/15)(15/15)(15/15)(14/15)): forestomach: papilloma, squamous cell carcinoma increase in incidence and/or sev
outcome (Carcinogen: URETHANE, 51-79-6, Doses [Carcinogen]: 0.5 MG/G BW 1/WK FOR 2 WK, Doses [Promoter]: 0, 50 MG/L IN DRINKING WATER FOR THE DURATION OF STUDY BEGINNING 4 WK PRIOR TO CARCINOGEN TREATMENT (STUDY DURATION: 210, Route [Carcinogen]: INTRAPERITONEAL, Route [Promoter]: ORAL, Species: MOUSE, Strain/Sex: A/SNELL/FEMALE): lung: adenoma
outcome (Carcinogen: URETHANE, 51-79-6, Doses [Carcinogen]: 0.5 MG/G BW 1/WK FOR 2 WK, Doses [Promoter]: 0, 50 MG/L IN DRINKING WATER FOR THE DURATION OF STUDY BEGINNING 4 WK PRIOR TO CARCINOGEN TREATMENT (STUDY DURATION: 210, Route [Carcinogen]: INTRAPERITONEAL, Route [Promoter]: ORAL, Species: MOUSE, Strain/Sex: C57BL X CBA/ FEMALE): lung: adenoma
outcome (Carcinogen: URETHANE, 51-79-6, Doses [Carcinogen]: 0.5 MG/G BW/WK FOR 2 WK, Doses [Promoter]: 0, 50, 500 MG/L IN DRINKING WATER FOR THE DURATION OF STUDY BEGINNING 4 WK PRIOR TO CARCINOGEN TREATMENT (STUDY DURATION, Doses [Promoter]: 0, 50, 500 MG/L IN DRINKING WATER FOR THE DURATION OF STUDY BEGINNING 4 WK PRIOR TO CARCINOGEN TREATMENT (STUDY DURATION, Route [Carcinogen]: INTRAPERITONEAL, Route [Promoter]: ORAL, Species: MOUSE, Strain/Sex: A/SNELL): lung: adenoma
outcome (Carcinogen: URETHANE, 51-79-6, Doses [Carcinogen]: 0.5 MG/G BW/WK FOR 2 WK, Doses [Promoter]: 0, 50, 500 MG/L IN DRINKING WATER FOR THE DURATION OF STUDY BEGINNING 4 WK PRIOR TO CARCINOGEN TREATMENT (STUDY DURATION, Doses [Promoter]: 0, 50, 500 MG/L IN DRINKING WATER FOR THE DURATION OF STUDY BEGINNING 4 WK PRIOR TO CARCINOGEN TREATMENT (STUDY DURATION, Route [Carcinogen]: INTRAPERITONEAL, Route [Promoter]: ORAL, Species: MOUSE, Strain/Sex: C57BLXCBA): lung: adenoma

CC(=O)[C@H]1[C@H](C#N)C[C@H]2[C@@H]3CC=C4C[C@@H](O)CC[C@]4(C)[C@H]3CC[C@@]21C
outcome (Carcinogen: DIISOPROPANOLNITROSAMINE [53609-64-6], Doses [Carcinogen]: SINGLE DOSE OF 2.5 G/KG BW, Doses [Promoter]: 1000 PPM IN DIET BEGINNING 1 WK AFTER DIPN TREATMENT FOR 19 WKS (STUDY DURATION: 20 WKS), Route [Carcinogen]: SUBCUTANEOUS INJECTION, Route [Promoter]: DIET, Species: RAT, Strain/Sex: SPRAGUE-DAWLEY/MALE): thyroid: cystic adenoma, follicular adenoma, and follicular carcinoma

OO
outcome (Carcinogen: N-METHYL-N'-NITRO-N-NITROSOGUANIDINE, 70-25-7, Doses [Carcinogen]: 25 PPM IN WATER FOR 30 MIN, Doses [Promoter]: 0, 600, 3000 PPM IN DIETS CONTAINING HIGH (1000 PPM) LEVELS OF VITAMIN E FOR 8 MO (STUDY DURATION: 10 MO), Doses [Promoter]: 0, 600, 3000 PPM IN DIETS CONTAINING HIGH (1000 PPM) LEVELS OF VITAMIN E FOR 8 MO (STUDY DURATION: 10 MO), Route [Carcinogen]: IMMERSION, Route [Promoter]: ORAL, Species: FISH, Strain/Sex: RAINBOW TROUT/MALE, FEMALE): liver: tumor
outcome (Carcinogen: N-METHYL-N'-NITRO-N-NITROSOGUANIDINE, 70-25-7, Doses [Carcinogen]: 25 PPM IN WATER FOR 30 MIN, Doses [Promoter]: 0, 600 PPM IN DIETS CONTAINING LOW (20 PPM) LEVELS OF VITAMIN E FOR 8 MO (STUDY DURATION: 10 MO), Route [Carcinogen]: IMMERSION, Route [Promoter]: ORAL, Species: FISH, Strain/Sex: RAINBOW TROUT/MALE, FEMALE): liver: tumor

CCCCCCCCCCCCCC(=O)OCC1=C[C@H]2C3C(C)(C)C3(OC(C)=O)[C@H](OC(=O)CCCCCCCCCCCCC)[C@@H](C)[C@]2(O)[C@@H]2C=C(C)C(=O)[C@]2(O)C1 (some centres undefined)
outcome (Carcinogen: 7,12-DIMETHYLBENZ[A]ANTHRACENE, 57-97-6, Doses [Carcinogen]: 100 NMOL ONCE, Doses [Promoter]: 0, 50, 100, 200 NMOL 2/WK FOR 24 WK BEGINNING 1 WK POST CARCINOGEN DOSE (STUDY DURATION: 25 WK), Doses [Promoter]: 0, 50, 100, 200 NMOL 2/WK FOR 24 WK BEGINNING 1 WK POST CARCINOGEN DOSE (STUDY DURATION: 25 WK), Route [Carcinogen]: DERMAL, Route [Promoter]: DERMAL, Species: MOUSE, Strain/Sex: NMRI/FEMALE): skin: tumor

CCCCCCCCCC(=O)O[C@@H]1[C@@H](C)[C@@]2(O)[C@@H](C=C(CO)C[C@]3(O)C(=O)C(C)=C[C@@H]23)[C@@H]2C(C)(C)[C@]12OC(=O)CCCCCCCCC
outcome (Carcinogen: 7,12-DIMETHYLBENZ(A)ANTHRACENE, Doses [Carcinogen]: TOP, Route [Carcinogen]: DERMAL, Route [Promoter]: DERMAL, Species: MOUSE, Strain/Sex: MALE,FEMALE): forestomach

CNCCCN1c2ccccc2CCc2ccccc21
outcome (Carcinogen: AZOXYMETHANE, 25843-45-2, Doses [Carcinogen]: 7.4 MG/KG BW IN 0.9% SALINE 1/WK FOR 10 WK, Doses [Promoter]: 0, 10 MG/KG BW IN 0.9% SALINE 1/2 D FOR 10 WK ON SAME DAY AS CARCINOGEN ADMINISTRATION (STUDY DURATION: 35 WK), Route [Carcinogen]: SUBCUTANEOUS, Route [Promoter]: SUBCUTANEOUS, Species: RAT, Strain/Sex: WISTAR/MALE): colon: tumor

O=c1c(O)c(-c2ccc(O)c(O)c2)oc2cc(O)cc(O)c12
outcome (Carcinogen: N-ETHYL-N'-NITRO-N-NITROSOGUANIDINE, 4245-77-6, Doses [Carcinogen]: 0.01% IN DRINKING WATER FOR 4 WK PRIOR TO PROMOTER DOSES, Doses [Promoter]: 2% IN DIET FOR 16 WK (STUDY DURATION: 20 WK), Route [Carcinogen]: ORAL, Route [Promoter]: ORAL, Species: MOUSE, Strain/Sex: C57BL6/MALE): duodenum: tumor

CC(=O)Oc1ccc(C(c2ccc(OC(C)=O)cc2)c2ccccn2)cc1
outcome (Carcinogen: AZOXYMETHANE, 25843-45-2, Doses [Carcinogen]: 15 MG/KG TWICE ON DAYS 1 AND 5 OF TREATMENT, Doses [Promoter]: 0, 4.3, 43 MG/KG/D 6 D/WK FOR 13 WK (STUDY DURATION: 13 WK), Doses [Promoter]: 0, 4.3, 43 MG/KG/D 6 D/WK FOR 13 WK (STUDY DURATION: 13 WK), Route [Carcinogen]: INTRAPERITONEAL, Route [Promoter]: GAVAGE, Species: RAT, Strain/Sex: WISTAR/MALE): colon: adenocarcinoma

ClC(Cl)=C(Cl)C(Cl)=C(Cl)Cl
outcome (Carcinogen: N-ETHYL-N-HYDROXYETHYLNITROSAMINE, 13147-25-6, Doses [Carcinogen]: 0.1% IN DRINKING WATER FOR 2 WK, Doses [Promoter]: 0, 0.1% IN DIET FOR 30 WK BEGINNING POST CARCINOGEN TREATMENT (STUDY DURATION: 32 WK), Route [Carcinogen]: ORAL, Route [Promoter]: ORAL, Species: RAT, Strain/Sex: WISTAR/MALE): kidney: renal cell tumor

CC(C)NCC(O)c1ccc(O)c(O)c1 (centres undefined)
outcome (Carcinogen: N-NITROSOMORPHOLINE, 59-89-2, Doses [Carcinogen]: 175 MG/L IN DRINKING WATER FOR 8 WK, Doses [Promoter]: 0, 0.1 MG/KG BW IN OLIVE OIL 1/2 D FOR 13 WK BEGINNING SIMULTANEOUSLY WITH CARCINOGEN TREATMENT (STUDY DURATION: 13 WK), Route [Carcinogen]: ORAL, Route [Promoter]: SUBCUTANEOUS, Species: RAT, Strain/Sex: SPRAGUE-DAWLEY/MALE): liver: carcinoma
